From ChEMBL document CHEMBL5365464, “Structure-Based Optimization of the Third Generation Type II Macrocycle TRK Inhibitors with Improved Activity against Solvent-Front, xDFG, and Gatekeeper Mutations” (J Med Chem, 2023)

What was measured:
[1] = molecular target: Muscle, skeletal receptor tyrosine-protein kinase (Homo sapiens, UniProt O15146); assay: Inhibition of Musk (unknown origin)
[2] = molecular target: Tyrosine-protein kinase receptor UFO (Homo sapiens, UniProt P30530); assay: Inhibition of Axl (unknown origin)
Sequence of Tyrosine-protein kinase receptor UFO (P30530 whole entry, the tested form may be a part): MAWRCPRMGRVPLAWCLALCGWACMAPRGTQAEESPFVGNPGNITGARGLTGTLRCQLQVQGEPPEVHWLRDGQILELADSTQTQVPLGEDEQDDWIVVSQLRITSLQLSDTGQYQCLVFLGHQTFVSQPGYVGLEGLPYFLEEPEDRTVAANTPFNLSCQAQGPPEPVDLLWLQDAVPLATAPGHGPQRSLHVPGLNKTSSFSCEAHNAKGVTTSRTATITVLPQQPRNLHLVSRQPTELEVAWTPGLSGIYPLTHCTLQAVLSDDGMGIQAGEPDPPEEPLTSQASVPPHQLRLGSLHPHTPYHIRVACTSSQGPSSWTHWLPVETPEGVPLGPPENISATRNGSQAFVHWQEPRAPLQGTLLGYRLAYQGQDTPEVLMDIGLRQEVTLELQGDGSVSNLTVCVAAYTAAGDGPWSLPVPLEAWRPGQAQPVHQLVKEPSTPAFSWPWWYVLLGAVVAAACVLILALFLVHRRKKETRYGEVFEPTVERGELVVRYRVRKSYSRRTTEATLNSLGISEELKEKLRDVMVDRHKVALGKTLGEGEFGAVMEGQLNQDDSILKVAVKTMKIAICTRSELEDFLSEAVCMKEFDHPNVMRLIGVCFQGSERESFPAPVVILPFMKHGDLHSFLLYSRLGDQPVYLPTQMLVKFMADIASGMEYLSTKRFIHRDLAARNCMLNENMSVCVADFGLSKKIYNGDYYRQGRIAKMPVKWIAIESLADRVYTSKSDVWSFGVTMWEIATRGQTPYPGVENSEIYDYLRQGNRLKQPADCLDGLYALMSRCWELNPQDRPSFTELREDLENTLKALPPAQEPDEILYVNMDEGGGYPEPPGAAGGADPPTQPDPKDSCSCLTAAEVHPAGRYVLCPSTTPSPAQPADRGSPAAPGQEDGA

[3] = molecular target: Epithelial discoidin domain-containing receptor 1 (Homo sapiens, UniProt Q08345); assay: Inhibition of DDR1 (unknown origin)
Ephrin type-A receptor 2 = Ephrin type-A receptor 2 (Homo sapiens, UniProt P29317); assay: Inhibition of EphA2 (unknown origin)
Ephrin type-A receptor 5 = Ephrin type-A receptor 5 (Homo sapiens, UniProt P54756); assay: Inhibition of EphA5 (unknown origin)
Sequence of Ephrin type-A receptor 5 (P54756 whole entry): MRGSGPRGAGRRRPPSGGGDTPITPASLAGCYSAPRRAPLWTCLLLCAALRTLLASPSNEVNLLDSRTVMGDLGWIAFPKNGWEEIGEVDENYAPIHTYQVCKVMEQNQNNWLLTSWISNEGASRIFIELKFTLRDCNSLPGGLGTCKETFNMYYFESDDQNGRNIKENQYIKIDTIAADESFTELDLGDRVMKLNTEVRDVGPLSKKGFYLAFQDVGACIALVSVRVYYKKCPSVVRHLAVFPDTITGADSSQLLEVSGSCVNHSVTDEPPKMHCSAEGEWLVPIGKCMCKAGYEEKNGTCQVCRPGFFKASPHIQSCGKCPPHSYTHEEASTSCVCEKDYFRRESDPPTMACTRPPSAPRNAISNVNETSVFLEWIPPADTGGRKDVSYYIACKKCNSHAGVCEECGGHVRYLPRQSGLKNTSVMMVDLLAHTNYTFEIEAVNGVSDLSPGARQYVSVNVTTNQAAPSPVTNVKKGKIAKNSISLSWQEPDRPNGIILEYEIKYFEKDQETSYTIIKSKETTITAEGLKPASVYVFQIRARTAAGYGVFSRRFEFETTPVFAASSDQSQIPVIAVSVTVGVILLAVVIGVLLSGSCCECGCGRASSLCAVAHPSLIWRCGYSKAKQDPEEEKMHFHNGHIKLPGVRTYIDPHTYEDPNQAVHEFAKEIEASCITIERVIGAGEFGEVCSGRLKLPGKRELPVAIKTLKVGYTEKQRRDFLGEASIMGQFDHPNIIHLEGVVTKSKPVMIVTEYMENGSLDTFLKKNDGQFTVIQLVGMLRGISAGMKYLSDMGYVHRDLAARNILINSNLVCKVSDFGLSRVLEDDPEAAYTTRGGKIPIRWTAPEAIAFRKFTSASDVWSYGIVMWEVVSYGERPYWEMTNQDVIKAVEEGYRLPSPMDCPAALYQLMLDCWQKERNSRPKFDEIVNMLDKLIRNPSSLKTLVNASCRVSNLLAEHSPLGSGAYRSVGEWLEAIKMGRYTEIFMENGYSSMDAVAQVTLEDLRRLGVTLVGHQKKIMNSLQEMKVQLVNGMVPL

Ephrin type-A receptor 7 = Ephrin type-A receptor 7 (Homo sapiens, UniProt Q15375); assay: Inhibition of EphA7 (unknown origin)
[4] = molecular target: Receptor-type tyrosine-protein kinase FLT3 (Homo sapiens, UniProt P36888); assay: Inhibition of FLT3 (unknown origin)
Angiopoietin-1 receptor = Angiopoietin-1 receptor (Homo sapiens, UniProt Q02763); assay: Inhibition of Tie2 (unknown origin)
[5] = molecular target: Cyclin-dependent kinase 14 (Homo sapiens, UniProt O94921); assay: Inhibition of CDK14 (unknown origin)
Sequence of Cyclin-dependent kinase 14 (O94921 whole entry): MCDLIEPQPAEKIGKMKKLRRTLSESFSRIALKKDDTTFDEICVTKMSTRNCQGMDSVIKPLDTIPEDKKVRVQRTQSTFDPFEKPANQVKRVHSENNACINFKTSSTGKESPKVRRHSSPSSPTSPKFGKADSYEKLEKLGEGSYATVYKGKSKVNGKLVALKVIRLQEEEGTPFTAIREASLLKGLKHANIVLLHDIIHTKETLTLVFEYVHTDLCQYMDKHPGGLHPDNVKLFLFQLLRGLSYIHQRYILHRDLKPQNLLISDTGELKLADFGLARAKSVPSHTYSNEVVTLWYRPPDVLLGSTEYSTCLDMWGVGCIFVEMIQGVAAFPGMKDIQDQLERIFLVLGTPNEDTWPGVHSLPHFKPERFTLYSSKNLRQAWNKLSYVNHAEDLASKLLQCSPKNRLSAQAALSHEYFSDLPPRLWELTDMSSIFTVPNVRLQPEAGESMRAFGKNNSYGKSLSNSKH

[6] = molecular target: Tyrosine-protein kinase HCK (Homo sapiens, UniProt P08631); assay: Inhibition of Hck (unknown origin)
[7] = molecular target: Vascular endothelial growth factor receptor 2 (Homo sapiens, UniProt P35968); assay: Inhibition of KDR (unknown origin)
[8] = molecular target: Tyrosine-protein kinase Mer (Homo sapiens, UniProt Q12866); assay: Inhibition of Mer (unknown origin)
Sequence of Tyrosine-protein kinase Mer (Q12866 whole entry): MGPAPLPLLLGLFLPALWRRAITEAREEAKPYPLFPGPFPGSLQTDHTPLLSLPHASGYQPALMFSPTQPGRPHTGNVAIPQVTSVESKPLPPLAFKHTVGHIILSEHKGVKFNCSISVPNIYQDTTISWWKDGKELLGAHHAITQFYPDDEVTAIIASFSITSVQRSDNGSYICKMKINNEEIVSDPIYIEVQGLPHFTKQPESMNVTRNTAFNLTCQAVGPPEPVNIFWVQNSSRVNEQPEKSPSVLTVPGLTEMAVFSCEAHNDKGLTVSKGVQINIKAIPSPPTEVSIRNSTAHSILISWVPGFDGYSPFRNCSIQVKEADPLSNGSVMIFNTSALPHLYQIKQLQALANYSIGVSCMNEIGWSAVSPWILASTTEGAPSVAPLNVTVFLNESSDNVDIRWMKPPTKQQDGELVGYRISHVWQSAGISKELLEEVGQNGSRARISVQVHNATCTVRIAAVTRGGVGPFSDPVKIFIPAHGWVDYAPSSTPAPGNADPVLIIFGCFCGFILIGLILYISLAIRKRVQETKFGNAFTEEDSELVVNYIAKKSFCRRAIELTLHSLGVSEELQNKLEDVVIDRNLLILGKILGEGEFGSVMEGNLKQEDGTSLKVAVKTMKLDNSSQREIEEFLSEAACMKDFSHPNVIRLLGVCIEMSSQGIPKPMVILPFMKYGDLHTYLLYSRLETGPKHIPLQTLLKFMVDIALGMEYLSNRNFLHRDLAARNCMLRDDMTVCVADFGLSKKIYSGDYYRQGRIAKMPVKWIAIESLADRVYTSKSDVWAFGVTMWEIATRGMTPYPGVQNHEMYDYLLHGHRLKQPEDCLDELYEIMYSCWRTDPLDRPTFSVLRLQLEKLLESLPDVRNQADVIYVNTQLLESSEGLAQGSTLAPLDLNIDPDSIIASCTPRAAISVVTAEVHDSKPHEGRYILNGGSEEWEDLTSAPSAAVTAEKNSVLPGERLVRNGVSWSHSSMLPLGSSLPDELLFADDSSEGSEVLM

[9] = molecular target: Ribosomal protein S6 kinase; assay: Inhibition of P70S6K (unknown origin); type: protein assay, Homo sapiens
[10] = molecular target: Proto-oncogene tyrosine-protein kinase receptor Ret (Homo sapiens, UniProt P07949); assay: Inhibition of RET (unknown origin)
[11] = molecular target: Vascular endothelial growth factor receptor 3 (Homo sapiens, UniProt P35916); assay: Inhibition of FLT4 (unknown origin)
Sequence of Vascular endothelial growth factor receptor 3 (P35916 whole entry): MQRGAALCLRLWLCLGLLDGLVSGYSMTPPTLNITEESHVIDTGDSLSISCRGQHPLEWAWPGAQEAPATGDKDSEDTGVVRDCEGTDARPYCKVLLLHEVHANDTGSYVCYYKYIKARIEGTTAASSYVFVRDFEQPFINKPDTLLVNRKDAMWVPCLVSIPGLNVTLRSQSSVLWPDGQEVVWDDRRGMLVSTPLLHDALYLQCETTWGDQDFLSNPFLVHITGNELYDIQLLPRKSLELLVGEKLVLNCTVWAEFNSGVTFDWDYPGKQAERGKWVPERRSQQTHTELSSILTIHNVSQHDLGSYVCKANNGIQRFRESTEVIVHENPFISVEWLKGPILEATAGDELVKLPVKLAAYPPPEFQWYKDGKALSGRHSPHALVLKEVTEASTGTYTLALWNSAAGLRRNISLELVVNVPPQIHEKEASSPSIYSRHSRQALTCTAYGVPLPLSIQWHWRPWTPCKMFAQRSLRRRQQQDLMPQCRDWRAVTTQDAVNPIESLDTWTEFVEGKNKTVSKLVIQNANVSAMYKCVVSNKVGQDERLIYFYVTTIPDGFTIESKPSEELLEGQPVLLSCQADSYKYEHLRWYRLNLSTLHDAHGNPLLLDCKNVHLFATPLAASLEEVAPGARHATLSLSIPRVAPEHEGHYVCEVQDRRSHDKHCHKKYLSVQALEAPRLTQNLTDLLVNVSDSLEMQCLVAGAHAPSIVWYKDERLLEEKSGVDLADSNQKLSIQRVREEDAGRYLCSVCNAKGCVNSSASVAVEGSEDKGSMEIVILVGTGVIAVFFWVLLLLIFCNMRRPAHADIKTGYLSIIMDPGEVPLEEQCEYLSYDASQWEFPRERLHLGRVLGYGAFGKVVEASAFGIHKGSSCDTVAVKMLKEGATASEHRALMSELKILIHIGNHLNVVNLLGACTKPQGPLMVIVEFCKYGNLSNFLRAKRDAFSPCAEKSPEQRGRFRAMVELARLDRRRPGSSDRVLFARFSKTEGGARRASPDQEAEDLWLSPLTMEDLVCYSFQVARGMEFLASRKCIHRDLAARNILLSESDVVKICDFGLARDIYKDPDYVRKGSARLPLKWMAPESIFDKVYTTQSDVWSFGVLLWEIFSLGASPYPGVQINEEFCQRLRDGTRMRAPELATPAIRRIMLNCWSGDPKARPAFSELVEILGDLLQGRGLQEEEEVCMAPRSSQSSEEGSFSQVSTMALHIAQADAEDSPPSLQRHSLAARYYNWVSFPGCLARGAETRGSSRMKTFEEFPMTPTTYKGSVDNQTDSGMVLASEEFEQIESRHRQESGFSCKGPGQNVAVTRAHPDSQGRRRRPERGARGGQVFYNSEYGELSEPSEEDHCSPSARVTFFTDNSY

[12] = Half life in ICR mouse at 2.0 mg/kg, iv measured upto 24 hrs by LC-MS/MS analysis; type: ADME, organism-based; details: in vivo
[13] = Tmax in ICR mouse at 2.0 mg/kg, iv measured upto 24 hrs by LC-MS/MS analysis; type: ADME, organism-based; details: in vivo
[14] = Cmax in ICR mouse at 2.0 mg/kg, iv measured upto 24 hrs by LC-MS/MS analysis; type: ADME, organism-based; set-up: dose 2 mg/kg, time < 24 hrs, route iv; details: in vivo
[15] = AUC (0 to t) in ICR mouse at 2.0 mg/kg, iv measured upto 24 hrs by LC-MS/MS analysis; type: ADME, organism-based; set-up: time < 24 hrs, dose 2 mg/kg, route iv; details: in vivo
[16] = AUC (0 to infinity) in ICR mouse at 2.0 mg/kg, iv measured upto 24 hrs by LC-MS/MS analysis; type: ADME, organism-based; set-up: dose 2 mg/kg, time < 24 hrs, route iv; details: in vivo
[17] = Clearance in ICR mouse at 2.0 mg/kg, iv measured upto 24 hrs by LC-MS/MS analysis; type: ADME, organism-based; details: in vivo
[18] = Half life in ICR mouse at 10 mg/kg, po measured upto 24 hrs by LC-MS/MS analysis; type: ADME, organism-based; details: in vivo
[19] = Tmax in ICR mouse at 10 mg/kg, po measured upto 24 hrs by LC-MS/MS analysis; type: ADME, organism-based; details: in vivo
[20] = Cmax in ICR mouse at 10 mg/kg, po measured upto 24 hrs by LC-MS/MS analysis; type: ADME, organism-based; set-up: dose 10 mg/kg, time < 24 hrs, route po; details: in vivo
[21] = AUC (0 to t) in ICR mouse at 10 mg/kg, po measured upto 24 hrs by LC-MS/MS analysis; type: ADME, organism-based; set-up: time < 24 hrs, dose 10 mg/kg, route po; details: in vivo
[22] = AUC (0 to infinity) in ICR mouse at 10 mg/kg, po measured upto 24 hrs by LC-MS/MS analysis; type: ADME, organism-based; set-up: dose 10 mg/kg, time < 24 hrs, route po; details: in vivo
[23] = Oral bioavailability in ICR mouse at 10 mg/kg measured upto 24 hrs by LC-MS/MS analysis; type: ADME, organism-based; details: in vivo
[24] = Toxicity in CB17-SCID mouse assessed as drug tolerance at 50 mg/kg/day administered via oral gavage measured every 2 days for 12 days; type: organism-based; details: in vivo, 288 h, time 12 day
[25] = Toxicity in CB17-SCID mouse assessed as mortality at 50 mg/kg/day administered via oral gavage measured every 2 days for 12 days; type: organism-based; details: in vivo, 288 h, time 12 day
[26] = Toxicity in CB17-SCID mouse assessed as effect on body weight loss at 50 mg/kg/day administered via oral gavage measured every 2 days for 12 days; type: organism-based; details: in vivo, 288 h, time 12 day

## Cc1c2cc(cc1C(=O)Nc1cc(CN3CCN(C)CC3)cc(C3CC3)c1)OCCCCCCCNC(=O)c1ccc3ncc(n3n1)C#C2
[1]
  IC50: 12.8 nM
[2]
  IC50: 1550 nM
[3]
  IC50: 23.8 nM
Ephrin type-A receptor 2
  IC50: 12.8 nM
Ephrin type-A receptor 5
  IC50: 23 nM
Ephrin type-A receptor 7
  IC50: 1.77 nM
[4]
  IC50: 11.6 nM
Angiopoietin-1 receptor
  IC50: 66.3 nM
[5]
  IC50: 155 nM
[6]
  IC50: 253 nM
[7]
  IC50: 73.6 nM
[8]
  IC50: 25.9 nM
[9]
  IC50: 66.82 nM
[10]
  IC50: 7.48 nM
[11]
  IC50: 59.4 nM
[12]
  half-life: 1.92 h
[13]
  Tmax: 4.8 min
[14]
  Cmax: 626 ng/mL
[15]
  AUC(0-t) at 24 h: 1200 ng·h/mL
[16]
  AUC(0-inf): 1280 ng·h/mL
[17]
  clearance: 26.7 mL/min/kg
[18]
  half-life: 4.3 h
[19]
  Tmax: 2.17 h
[20]
  Cmax: 95.2 ng/mL
[21]
  AUC(0-t) at 24 h: 501 ng·h/mL
[22]
  AUC(0-inf): 707 ng·h/mL
[23]
  bioavailability: 11%
[24]
  Activity: Non-Toxic
[25]
  Activity: Non-Toxic
[26]
  Activity: Non-Toxic
